Tests used:
E. coli [1] = assay: Antibacterial activity against E. coli in Muller-Hinton broth; type: cell-based; parameters: key: “+” means positive identification of bacterial growth; details: compound or extract alone, head 1%, 24 hours at 37° C.
Excerpt: (§1) The testing methods used follow the procedures set-forth by the Clinical and Laboratory Standards Institute (CLSI) and US Pharmacopeia.
(§2) E. coli was chosen as the bacteria to challenge the antibacterial activity of the bound compositions and the free hydrogen peroxide. A range of E. coli concentrations, ranging from 10-10^6 CFU/ml were used for the study. […]
(§3) Table 2 compares the antibacterial activities of each of the model compounds and extracts alone, without the formation of the bound compositions: gallic acid (a model polyphenol building block), tannic acid (a model polyphenol), pomegranate husk extract, and green tea extract were each used to challenge the E. coli alone. […]

[2] = Amount of hydrogen peroxide bound to model compounds or extracts in dry form (peroxide test strip); type: physicochemical
Excerpt: Art-recognized procedures, such as those set-forth at least in U.S. Pat. Nos. 3,860,694; 3,864,454; 4,171,280; and 4,966,762, were used as a guide for this study. […] As discussed, one of skill will appreciate that hydrogen peroxide in a free form, for example, would otherwise quickly degrade. The polyphenols were provided from model compounds or plant extracts. A dry form of the compositions was made between (i) gallic acid (a model polyphenol building block from Sigma-Aldrich) and hydrogen peroxide; (ii) tannic acid (a model polyphenol component from Sigma-Aldrich) and hydrogen peroxide; (iii) pomegranate husk extract and hydrogen peroxide; and, (iv) green tea extract and hydrogen peroxide, using the procedures taught herein, including: • i. adding a solution of 35% hydrogen peroxide slowly into each of the gallic acid powder, tannic powder, pomegranate husk extract powder, or green tea extract powder. […] The hydrogen peroxide concentration measurements were taken using standard methods to determine the amount of hydrogen peroxide that bound to the model compounds or extracts in the dry form.

E. coli [3] = assay: Stability of hydrogen peroxide in aqueous solution, bound compositions vs free hydrogen peroxide, challenged with E. coli; type: physicochemical; details: for hydrogen peroxide concentration: 125 ppm extract + 125 ppm H2O2 (1:1), E. coli 10^6 CFU/ml
Excerpt: This method tests the stability of the hydrogen peroxide in the combination. The testing methods used follow the standard procedures set-forth by the Clinical and Laboratory Standards Institute (CLSI) and US Pharmacopeia. • i. E. coli was chosen as the bacteria to challenge the stability of the bound compositions and the free hydrogen peroxide. • ii. The hydrogen peroxide concentration was matched to the selected bacteria in order to form a useful curve representing hydrogen peroxide degradation over time for the samples. […] FIG. 2A compares stabilities of free hydrogen peroxide to hydrogen peroxide bound to each of: gallic acid (a model polyphenol building block), tannic acid (a model polyphenol), pomegranate husk extract, green tea extract, and Blessed thistle extract. […] John's wort, Valerian, Apple, Grape, Echinacea purpurea, Grape seed extract, and Blueberry. In both FIGS. 2A and 2B, there are curves that cannot be identified well individually, as they are identical and overlapping. […]

E. coli [4] = assay: Antibacterial activity against E. coli in Muller-Hinton broth; type: cell-based; details: 100 ppm, 24 hours at 37° C.
Excerpt: as §1, §2, §3

E. coli [5] = assay: as above; type: cell-based; parameters: key: “+” means identifiable bacterial growth.; “−” means no bacterial growth; details: 100 ppm, 24 hours at 37° C.
Excerpt: as §1, §2, §3

| hydrogen peroxide bound, by total dry wt [2] | SMILES | bacterial growth (E. coli [1]; E coli 10 CFU/ml) | bacterial growth (E. coli [1]; E coli 10^2 CFU/ml) | bacterial growth (E. coli [1]; E coli 10^3 CFU/ml) | bacterial growth (E. coli [1]; E coli 10^4 CFU/ml) | bacterial growth (E. coli [1]; E coli 10^5 CFU/ml) | bacterial growth (E. coli [1]; E coli 10^6 CFU/ml) | hydrogen peroxide concentration (E. coli [3]; 0 Hours) | hydrogen peroxide concentration (E. coli [3]; 4 Hours) | hydrogen peroxide concentration (E. coli [3]; 8 Hours) | hydrogen peroxide concentration (E. coli [3]; 12 Hours) | hydrogen peroxide concentration (E. coli [3]; 16 Hours) | hydrogen peroxide concentration (E. coli [3]; 20 Hours) | hydrogen peroxide concentration (E. coli [3]; 24 Hours) | hydrogen peroxide concentration after degradation (E. coli [3]; within about the first 8 hours) | fate of E. coli, all concentrations (E. coli [4]) | bacterial growth (E. coli [5]; E coli 10^2 CFU/ml) | bacterial growth (E. coli [5]; E coli 10^3 CFU/ml) | bacterial growth (E. coli [5]; E coli 10^4 CFU/ml) | bacterial growth (E. coli [5]; E coli 10^5 CFU/ml) |
| --- | --- | --- | --- | --- | --- | --- | --- | --- | --- | --- | --- | --- | --- | --- | --- | --- | --- | --- | --- | --- |
| about 3.0% | O=C(O)c1cc(O)c(O)c(O)c1 [Gallic Acid, gallic acid] | + | + | + | + | + | + | – | – | – | – | – | – | – | – | – | – | – | – | – |
| – | OO [H2O2, hydrogen peroxide] | – | – | – | – | – | – | 125 ppm | 15 ppm | 0 ppm | 0 ppm | 0 ppm | 0 ppm | 0 ppm | ~0.0 ppm | managed to survive | + | + | + | + |
| about 2.5% | O=C(OC[C@H]1O[C@@H](OC(=O)c2cc(O)c(O)c(OC(=O)c3cc(O)c(O)c(O)c3)c2)[C@H](OC(=O)c2cc(O)c(O)c(OC(=O)c3cc(O)c(O)c(O)c3)c2)[C@@H](OC(=O)c2cc(O)c(O)c(OC(=O)c3cc(O)c(O)c(O)c3)c2)[C@@H]1OC(=O)c1cc(O)c(O)c(OC(=O)c2cc(O)c(O)c(O)c2)c1)c1cc(O)c(O)c(OC(=O)c2cc(O)c(O)c(O)c2)c1 [Tannic Acid, tannic acid] | + | + | + | + | + | + | – | – | – | – | – | – | – | – | – | – | – | – | – |
